From patent publication US10654834B2 (Venenum Biodesign, LLC, priority 2016, dated 2020)

Tests used:
[1] = Pharmacokinetic profile in mice after oral gavage; assay type: in vivo, mouse; conditions: mouse; fasted male Hilltop mice, 10 mg/kg oral gavage, plasma; read-out: Cmax
Procedure, shortened: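 Fasted 8-week male Hilltop mice given 10 mg/kg orally in 20% PEG400/80% 0.5% CMC + 0.25% Tween-80. EDTA plasma sampled 0-4 h, measured by LC-MS/MS (MRM, positive ion); Cmax and AUC derived non-compartmentally, values being means of three mice.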

mouse TGR5 receptor = target: T1, mouse TGR5 receptor (Mus musculus, UniProt Q80SS6); experiment: Mouse TGR5 HTRF cAMP production assay (HEK293-EBNA cells, Cisbio cAMP HiRange kit); assay type: cell-based; conditions: HEK293-EBNA cells overexpressing mouse TGR5, HTRF cAMP assay
T1 construct: host or cells: HEK293-EBNA (293 c18, ATCC CRL10852)
T1 sequence (Q80SS6 1-329): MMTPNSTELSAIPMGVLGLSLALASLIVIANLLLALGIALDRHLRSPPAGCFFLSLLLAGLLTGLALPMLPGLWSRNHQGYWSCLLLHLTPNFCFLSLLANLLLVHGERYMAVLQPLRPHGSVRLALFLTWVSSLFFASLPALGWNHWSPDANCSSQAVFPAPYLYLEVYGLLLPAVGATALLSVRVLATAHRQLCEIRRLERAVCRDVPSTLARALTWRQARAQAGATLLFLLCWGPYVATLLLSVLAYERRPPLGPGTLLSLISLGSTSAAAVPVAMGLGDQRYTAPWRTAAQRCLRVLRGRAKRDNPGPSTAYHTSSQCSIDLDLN
Procedure, shortened: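 HEK293-EBNA cells stably expressing mouse TGR5 (episomal vector) were suspended in serum-free DMEM with 500 μM IBMX and exposed to 12-point half-log compound dilutions for 1 h at room temperature. cAMP was detected by HTRF (d2-cAMP/anti-cAMP cryptate, 1 h, room temperature), giving EC50 from duplicates.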

Row | Compound | Cmax [1] | EC50 (mouse TGR5 receptor)
1 | N#Cc1ccc(CCNC(=O)[C@@H]2CCCN2c2cc(N3CCC(CCNS(=O)(=O)CCNC(=O)[C@@H](N)CS(=O)(=O)O)CC3)nc(C(F)(F)F)n2)cc1 [Compound 125, (R)-2-amino-3-((2-(N-(2-(1-(6-((S)-2-((4-cyanophenethyl)carbamoyl)-pyrrolidin-1-yl)-2-(trifluoromethyl)-pyrimidin-4-yl)piperidin-4-yl)ethyl)sulfamoyl)ethyl)amino)-3-oxopropane-1-sulfonic acid] | 0.14 ng/mL | < 100 nM
2 | N#Cc1ccc(CCNC(=O)[C@@H]2CCCN2c2cc(N3CCC(OCC#CCS(=O)(=O)O)CC3)nc(C(F)(F)F)n2)cc1 [Compound 134, (S)-4-((1-(6-(2-((4-cyanophenethyl)carbamoyl)pyrrolidin-1-yl)-2-(trifluoromethyl)pyrimidin-4-yl)piperidin-4-yl)oxy)but-2-yne-1-sulfonic acid] | 22 ng/mL | < 100 nM
3 | COc1cc(C(F)(F)F)ccc1CCNC(=O)[C@@H]1CCN1c1cc(N2CCC(CCC(=O)NCCS(=O)(=O)O)CC2)nc(C(F)(F)F)n1 [Compound 259] | 27 ng/mL | < 100 nM
4 | N#Cc1ccc(CCNC(=O)[C@@H]2CCCN2c2cc(N3CCC(CCCNC(=O)NCCS(N)(=O)=O)CC3)nc(C(F)(F)F)n2)cc1 [Compound 120, (S)-N-(4-cyanophenethyl)-1-(6-(4-(3-(3-(2-sulfamoylethyl)ureido)propyl)piperidin-1-yl)-2-(trifluoromethyl)pyrimidin-4-yl)pyrrolidine-2-carboxamide] | 2.6 ng/mL | < 100 nM
5 | N#Cc1ccc(CCNC(=O)[C@@H]2CCCN2c2cc(N3CCC(CCC(=O)NCCS(=O)(=O)O)CC3)nc(C(F)(F)F)n2)cc1 [Compound 56, (S)-2-(3-(1-(6-(2-((4-cyanophenethyl)carbamoyl)pyrrolidin-1-yl)-2-(trifluoromethyl)pyrimidin-4-yl)piperidin-4-yl)propanamido)ethanesulfonic acid] | 14 ng/mL | < 100 nM
6 | N#Cc1ccc(CCNC(=O)[C@@H]2CCN2c2cc(N3CCC(CCNC(=O)NCCS(N)(=O)=O)CC3)nc(C(F)(F)F)n2)cc1 [Compound 269, (S)—N-(4-cyanophenethyl)-1-(6-(4-(2-(3-(2-sulfamoylethyl)ureido)ethyl)piperidin-1-yl)-2-(trifluoromethyl)pyrimidin-4-yl)azetidine-2-carboxamide] | 3.2 ng/mL | < 100 nM

Results, then the compound that gave them:

Row | Cmax [1] | EC50 (mouse TGR5 receptor) | Compound
7 | 20 ng/mL | < 100 nM | O=C(O)CCCC1CCN(c2cc(N3CCC[C@@H](C(=O)NCCc4ccc(C(F)(F)F)cc4)C3)nc(C(F)(F)F)n2)CC1 [Compound 330, (R)-4-(1-(2-(trifluoromethyl)-6-(3-((4-(trifluoromethyl)phenethyl)carbamoyl)piperidin-1-yl)pyrimidin-4-yl)piperidin-4-yl)butanoic acid]
8 | 13 ng/mL | < 100 nM | N#Cc1ccc(CCNC(=O)[C@@H]2CCN2c2cc(N3CCC(CCCC(=O)NCCOCCNC(=N)N)CC3)nc(C(F)(F)F)n2)cc1 [Compound 284, (S)-N-(4-cyanophenethyl)-1-(6-(4-(4-((2-(2-guanidinoethoxy)-ethyl)amino)-4-oxobutyl)piperidin-1-yl)-2-(trifluoromethyl)pyrimidin-4-yl)azetidine-2-carboxamide]
9 | 0.5 ng/mL | < 100 nM | N#Cc1ccc(CCNC(=O)[C@@H]2CCN2c2cc(N3CCC(CCNS(=O)(=O)CCNC(=O)[C@@H](N)CS(=O)(=O)O)CC3)nc(C(F)(F)F)n2)cc1 [Compound 363, (R)-2-amino-3-((2-(N-(2-(1-(6-((S)-2-((4-cyanophenethyl)carbamoyl)azetidin-1-yl)-2-(trifluoromethyl)pyrimidin-4-yl)piperidin-4-yl)ethyl)sulfamoyl)ethyl)amino)-3-oxopropane-1-sulfonic acid]
